Data published in patent US20240207308A1, “METHOD FOR CULTURING DENDRITIC CELLS” (NANOFAENTECH CO., LTD., priority 2021, published 2024).

What was measured:
Assay type in all cases: cell-based, mouse
spleen dendritic cells [1] = test: Flow cytometry of CD86, MHC-II, CD80, CD40 on cultured spleen dendritic cells (self-activation)
Method: Mouse spleen dendritic cells were obtained by adding EDTA-BSS (Balanced Salt Solution) buffer and collagenase solution (DMEM containing 100 units of collagenase type IV, medium containing low glucose) to spleens of female C57BL/6 mice and cutting it with surgical scissors, mixing the same with 6 mL of collagenase treatment solution, and incubating the mixture for 30 minutes. The separated whole spleen tissue was filtered using a 70 μm cell strainer (Falcon), followed by centrifugation at 1800 rpm for 5 minutes thus to separate the cells. Red blood cells were removed by adding red blood cell lysis buffer (Sigma-Aldrich) to the cells and washed twice with RPMI-1640 medium containing 10% fetal bovine serum (FBS). Dendritic cells were reacted with CD11c^+ antibody-bound microbeads and isolated using CD11c Microbeads Ultrapure (MACS, Milteni Biotec, USA).
In FIG. 2, in order to determine whether self-activation occurs when primary dendritic cells isolated from the spleen are cultured, dendritic cells were dispensed in a 24-well plate at 2×10^5/mL, and after culturing for 6 hours in RPMI-1640 medium at 37° C. under 5% CO2 condition, the expression levels of MHC-II, CD86, CD80 and CD40 were analyzed on the surface of dendritic cells using a flow cytometer (MACSQuant VYB flow cytometer, Miltenyi Biotec). Results measured using a flow cytometer were analyzed using FlowJo v10 (Tree Star, Ashland). The expression levels of CD86, CD80 and CD40 were shown as the percentage of cells stained with CD11c, and the expression level of MHC-II was shown as mean fluorescence intensity (MFI), which is the mean fluorescence intensity of fluorescence.
In FIG. 7, when culturing spleen dendritic cells, each of the prepared peptides was added at a concentration of 200 μg/mL and the expression level of CD86 was measured 6 hours after culture. When each peptide was used alone for treatment, the expression of CD86 was not inhibited in spleen dendritic cells. […] Compared to when the cells were treated with these three kinds of peptides, the expression was not inhibited even when the two kinds of peptides were used together for treatment. * indicates statistical significance as P<0.05 or less compared to the P1, P1-2, and P2-1 conditions.
In FIG. 9, peptides containing P1 and P2 and amino acids of these peptides as well as P3 peptide in a combination of three types were added to the spleen dendritic cell culture medium, and after culturing for 6 hours, the expression level of CD86 was measured by flow cytometry.
In FIG. 24, different concentrations of LP1, LP2 and LP3 were added to reach a concentration of 800 μg/mL, and spleen dendritic cells (2×10^5/mL) were cultured for 6 hours or 24 hours, and the CD86 expression level was measured by flow cytometry (MACSQuant VYB flow cytometer, Miltenyi Biotec). The measured results were analyzed using FlowJo v10 (Tree Star, Ashland).
In FIG. 25, when spleen primary dendritic cells were dispensed at 2×10^5/mL and cultured for 24 hours while scrambled peptides of S-LP1, S-LP2 and S-LP3 were each added at a concentration of 800 μg/mL, the increase in the expression of CD86 was not inhibited. Further, the expression of CD86 was not reduced even when the scrambled peptides S-P1, S-P2 and S-P3 were simultaneously treated at a concentration of 600 μg/mL, respectively.

spleen dendritic cells [2] = test: CD86 expression of spleen dendritic cells after immunostimulant (LPS or poly (I:C)), flow cytometry
Method: In FIG. 14, the expression level of CD86 in spleen primary dendritic cells cultured for 24 hours was measured similarly to the expression level of CD86 increased when E. coli LPS as an activation-inducing agent was used for treatment at a concentration of 1 μg/mL. […] CD86 expression of spleen dendritic cells cultured with addition of fibronectin was not increased even when 1 μg/mL LPS was treated.
In FIG. 20, compared to LPS binding to Toll-like receptor-4 of immune cells and inflammatory cells including dendritic cells, when poly (I:C) (polyinosinic:polycytidylic acid), which is similar to double-stranded RNA in terms of structure and is known as an immunostimulant that binds to Toll-like receptor-3, was administered at a concentration of 50 μg/mL, the increase in the expression of CD86 in spleen dendritic cells was inhibited when cultured with addition of fibronectin.

spleen dendritic cells [3] = test: Viability of spleen dendritic cells by 7-AAD staining; conditions: 6 hours of culture
Method: Dendritic cells are characterized by rapid cell death during culture while self-activation occurs. In addition to the inhibition of self-activation, it was measured whether the viability of dendritic cells is changed. Cell viability was determined by staining of culturing cells with 7-AAD and measuring the number of cells not stained with the above fluorescent substance.

[4] = test system: CD8+ T cells from OT-I transgenic mice; test: Proliferation of CFSE-stained OT-I CD8+ T cells co-cultured with OVA peptide-treated spleen dendritic cells; conditions: LPS-stimulated dendritic cells, co-culture 1:20, 4 days
Method: The spleen dendritic cells (2×10^6/mL) were self-activated in a 96-well plate for 24 hours, or self-activation was inhibited by adding a linker peptide, and then either not treated with LPS or stimulated with LPS for 24 hours. Dendritic cells were cultured with 10 μM ovalbumin (OVA) peptide SIINFEKL (InvivoGen, San Diego, California, USA) for 1 hour. CD8^+ T cells were isolated from OT-I transgenic mice using a CD8 T cell isolation kit (Miltenyi Biotec) and fluorescence-stained with 10 μM carboxyfluorescein succinimidyl ester (CFSE) for 10 minutes. After co-culture of CD8^+ T cells (1×10^5) and DCs (5×10^3) treated with OVA peptide at a ratio of 1:20 for 4 days, a proliferation level of T cells was measured in percentage of cells that are negative for CFSE fluorescence-staining.

## fibronectin
Spleen dendritic cells [1]; 200 μg/mL (laminin 200 μg/mL or higher), cultured 6 hours
  expression level of CD86 or MHC-II (self-activation): self-activation did not occur
Spleen dendritic cells [1]; 200 μg/mL, cultured 6 hours
  expression of CD86 and MHC-II as well as CD80 and CD40: not increased
Spleen dendritic cells [1]; cultured 6 hours
  concentration most effective for self-activation of spleen dendritic cells: 200 µg/mL
Spleen dendritic cells [1]; cultured 6 hours or 24 hours, peptides 200 μg/mL each
  expression of MHC-II, CD80 and CD40 in addition to CD86: significantly inhibited
Spleen dendritic cells [2]; cultured 24 hours with the substance, 1 μg/mL LPS
  expression of CD86 by LPS stimulation: not increased
Spleen dendritic cells [2]; poly (I:C) 50 μg/mL, 24 hours, peptides 200 μg/mL each
  increase in the expression of CD86 by poly (I:C): inhibited
Spleen dendritic cells [3]
  number of 7-AAD-negative surviving cells: significantly increased
[4]
  T cell proliferation (cells negative for CFSE): very weak ability to induce T cell proliferation
